# Results published in patent US20080200724A1, “Process and Compound” (NPIL Pharmaceuticals (UK) Ltd, priority 2005, published 2008).
# Tests used:
# [1] = solvent mixtures comprising methanol and one or more of toluene or ethyl acetate, typically
# Description: The upper and lower concentration values are therefore dependent on the solubility characteristics of the material and the solvent mixture of choice. […] Therefore, for a crystallisation regime starting at 60° C. and ending at 0° C., a saturated or partially saturated solution in methanol and toluene, ethyl acetate admixtures, the concentration of BOC-protected 2R,3S—N-isobutyl-N-(2-hydroxy-3-amino-4-phenylbutyl)-p-nitrobenzene-sulfonylamide is in the range from 0.3 to 24% w/w.
# [2] = in propan-1-ol at 60° C.
# Description: In addition to methanol, other lower aliphatic alcohols were investigated. The solubility of BOC-protected 2R,3S—N-isobutyl-N-(2-hydroxy-3-amino-4-phenylbutyl)-p-nitrobenzene-sulfonylamide in propan-1-ol, propan-2-ol or butan-1-ol is too low to offer an economically viable process. […] The solubility of BOC-protected 2R,3S—N-isobutyl-N-(2-hydroxy-3-amino-4-phenylbutyl)-p-nitrobenzene-sulfonylamide in ethanol is better than that in C3 and C4-alcohols, but is still lower than the solubility in methanol. […] Similarly, acetone and 2-pentanone yield small acicular crystals.
compound,measurement,setting,value
"CC(C)CN(C[C@@H](O)[C@H](Cc1ccccc1)NC(=O)OC(C)(C)C)S(=O)(=O)c1ccc([N+](=O)[O-])cc1 [BOC-protected 2R,3S—N-isobutyl-N-(2-hydroxy-3-amino-4-phenylbutyl)-p-nitrobenzene-sulfonylamide]",maximum solubility achievable,[1]; 60° C.,24 % w/w
same,lower solubility value,[1]; end-point temperature of 0° C.,0.3 % w/w
same,solubility,[2],less than 3 % w/w
